In patent publication US11123398B2, “Chemotherapeutic combinations of cationic antimicrobial peptides and chemotherapeutics” (LYTIX BIOPHARMA AS, priority 2014, dated 2021):
Like-named read-outs stand apart in the source and are kept apart here. Non-standard residues stand in square brackets, D forms with d. Residues, ends and D or L forms follow the SMILES beside them. Dip = N[C@H](C(=O)O)C(c1ccccc1)c1ccccc1

Key:
[1] = test system: MCF-7/mdr; experiment: MTS cytotoxicity assay, MCF-7/mdr; format: cell-based, human; conditions: IC50 resistant / IC50 sensitive line; doxorubicin resistance
Procedure: Tumor cells were plated in 96-well flat-bottom microtitration plates (Nunc, Dutscher, Brumath, France) and incubated at 37° C. for 24 hours before treatment in 190 μl of drug-free culture medium supplemented or not with 10% FBS for adherent or suspension growing cell lines, respectively.
The adherent cell lines were washed once with 200 μl FBS-free culture medium before treatment. Tumor cells were incubated for 4 hours with 10 concentrations of compounds in ¼ dilution step with a top dose of 400 μM (range 4×10^−4 to 4×10^−10 M), with 1% (final concentration) Triton X-100 as positive control and FBS-free culture medium as negative control. The cells (190 μl) were incubated in a 200 μl final volume of FBS-free culture medium containing test substances at 37° C. under 5% CO2.
Three independent experiments were performed, each concentration being tested in quadruplicate. Control cells were treated with vehicle alone. At the end of treatments, the cytotoxic activity was evaluated by a MTS assay (see § 3.3.).
Like MTT, MTS is bioreduced by cells into a formazan product that is directly soluble in culture medium without processing, unlike MTT.
At the end of the cells treatment, 40 μl of a 0.22 μm filtered freshly combined solution of MTS (20 ml at 2 mg/ml, Ref G1111, Batch 235897, Exp March 2009, Promega, Charbonnières, France) and PMS (1 ml at 0.92 mg/ml, Ref P9625, Batch 065K0961, Sigma) in Dulbecco's Phosphate Buffered Saline (DPBS, Ref 17-513Q, Batch 6MB0152, Cambrex), were added in each well. Culture plates were incubated for 2 h at 37° C. Absorbency (OD) were measured at 490 nm in each well using VICTOR^3™ 1420 multilabeled counter (Wallac, PerkinElmer, Courtaboeuf, France).
IC50: drug concentration to obtain a 50% inhibition of cell proliferation.
The dose-response curves were plotted using XLFit 3 (IDBS, United Kingdom). The IC50 determination values were calculated using the XLFit 3 software from semi-log curves. Individual IC50 determination values as well as mean and SD values were generated.
Resistance index was calculated using the following formula: […]
Resistance index was calculated for each compound for each couple of sensitive and resistant cell lines. Individual resistance index was calculated when IC50 values of both sensitive and corresponding resistant cell lines were determined within same experiment. In addition, resistance index was also calculated ratio of mean IC50 values obtained during three independent experiments.

[2] = test system: A375 cells; experiment: MTT viability assay, A375 melanoma; format: cell-based, human; conditions: read-out: IC-50, melanoma cells, MTT
Procedure: The cytotoxic effect of LTX-315 was investigated using the colorimetric MTT viability assay as described in Eliassen et al. (2002), 22(5): pp 2703-10. The A375 cells were seeded at a concentration of 1×10^5 cells/ml in a volume of 0.1 ml in 96-well plates, and allowed to adhere in a complete growth media overnight. The media was then removed and the cells were washed twice in serum-free, RPMI-1650 media, before adding LTX-315 dissolved in serum-free RPMI at concentrations ranging from 2.5-300 μg/ml, and incubated for 5-180 minutes. Cells treated with a serum-free RPMI were used as negative control cells, while cells treated with 1% Triton X-100 in serum-free media were used as a positive control. The final results were calculated using the mean of three experiments, each with triplicate wells.

[3] = test system: A375 cells; experiment: Mitotracker confocal imaging (mitochondrial membrane potential); format: cell-based, human; conditions: short time after peptide treatment; data not shown
Procedure: Cells were seeded as for live cell imaging, and treated with Mitotracker CMH2XROS (Invitrogen) at […] for 15 minutes prior to peptide treatment. Cells were treated with 17 μM LTX-315, with negative control serum-free RPMI only. After 60 min of incubation, cells were analyzed using a Zeiss microscope. All confocal imaging experiments were subsequently conducted at least twice with similar results.

[4] = test system: murine CT26WT colon carcinoma; experiment: Murine CT26WT colon carcinoma tumours in mice, treatment regimes; format: in vivo; conditions: for Mean tumour size at day 1: prior to start of treatment
Procedure: The administration takes place by intra-tumoural injection of LTX-315 dissolved in sterile saline (0.9% NaCl in sterile water).
The mice were divided into five groups, 8 mice in each group. When the tumours reached the desired size of 20 mm^2 the treatment by intra tumoural injection was initiated. Group one was treated solely on day 1, Group two on day 1 and 2, Group three on day 1 and 3 and Group four on day 1, 2 and 3. All daily treatments were one single injection of 1.0 mg LTX-315 dissolved in 50 μl (20 mg/ml). Group five was treated with the 50 μl of vehicle for LTX-315 (Group 5).
Weighing and physical examination were used as health controls.

[5] = test system: human A547 cells; experiment: TEM, A547 cells; format: cell-based; conditions: 10 μg/ml, 60 minutes
[6] = Group 1: 1 mg intratumoural on day 1
[7] = Group 2: 1 mg intratumoural on days 1, 2
[8] = Group 3: 1 mg intratumoural on days 1, 3
[9] = Group 4: 1 mg days 1, 2, 3, n=8
[10] = Group 4: 1 mg intratumoural on days 1, 2, 3
[11] = of the 32 treated animals, all four regimes

NCCCC[C@H](NC(=O)[C@@H](NC(=O)[C@H](Cc1c[nH]c2ccccc12)NC(=O)[C@H](CCCCN)NC(=O)[C@H](CCCCN)NC(=O)[C@H](Cc1c[nH]c2ccccc12)NC(=O)[C@H](Cc1c[nH]c2ccccc12)NC(=O)[C@H](CCCCN)NC(=O)[C@@H](N)CCCCN)C(c1ccccc1)c1ccccc1)C(N)=O [LTX-315, K-K-W-W-K-K-W-Dip-K-NH2] (H-KKWWKKW[Dip]K-NH2)
Resistance index (RI), MCF-7/mdr [1]: 1.12
IC50 ([2]; 90 minutes of incubation): 14 µM
IC50 ([2]; five minutes of incubation): 30 µM
Mitochondrial membrane potential (Mitotracker signal) [3]: loss of mitochondrial signal
Animals showing complete tumour response ([4]; Group 1: 1 mg day 1): four out of eight
Free of Tumour at end of Follow-Up ([4]; Group 1: 1 mg day 1, n=8): 50% (4/8)
Relapse of Tumour ([4]; Group 1: 1 mg day 1, n=8): 20% (1/5)
Tumour Response: complete response ([4]; Group 1: 1 mg day 1, n=8): 62.5%
Tumour Response: no response ([4]; Group 1: 1 mg day 1, n=8): 0%
Tumour Response: partial response ([4]; Group 1: 1 mg day 1, n=8): 27.5%
Mean tumour size on day 6 [4, 6]: 4.343 ± 2.295 mm^2
Mean tumour size on day 10 [4, 6]: 7.171 ± 4.035 mm^2
Mean tumour size on day 17 [4, 6]: 3.712 ± 3.712 mm^2
Mean tumour size at day 1 [4, 6]: 22.69 ± 0.4070 mm^2
Animals showing complete tumour response ([4]; Group 2: 1 mg days 1, 2): two out of eight
Free of Tumour at end of Follow-Up ([4]; Group 2: 1 mg days 1, 2, n=8): 25% (2/8)
Relapse of Tumour ([4]; Group 2: 1 mg days 1, 2, n=8): 71% (5/7)
Tumour Response: complete response ([4]; Group 2: 1 mg days 1, 2, n=8): 87.5%
Tumour Response: no response ([4]; Group 2: 1 mg days 1, 2, n=8): 0%
Tumour Response: partial response ([4]; Group 2: 1 mg days 1, 2, n=8): 12.5%
Mean tumour size on day 6 [4, 7]: 1.458 ± 1.458 mm^2
Mean tumour size on day 10 [4, 7]: 5.058 ± 4.014 mm^2
Mean tumour size on day 17 [4, 7]: 6.644 ± 3.430 mm^2
Mean tumour size at day 1 [4, 7]: 22.90 ± 1.155 mm^2
Animals showing complete tumour response ([4]; Group 3: 1 mg days 1, 3): five out of eight
Free of Tumour at end of Follow-Up ([4]; Group 3: 1 mg days 1, 3, n=8): 62.5% (5/8)
Relapse of Tumour ([4]; Group 3: 1 mg days 1, 3, n=8): 29% (2/7)
Tumour Response: complete response ([4]; Group 3: 1 mg days 1, 3, n=8): 87.5%
Tumour Response: no response ([4]; Group 3: 1 mg days 1, 3, n=8): 12.5%
Tumour Response: partial response ([4]; Group 3: 1 mg days 1, 3, n=8): 0%
Mean tumour size on day 6 [4, 8]: 2.983 ± 2.983 mm^2
Mean tumour size on day 10 [4, 8]: 10.85 ± 7.553 mm^2
Mean tumour size on day 17 [4, 8]: 0.00 ± 0.00 mm^2
Mean tumour size at day 1 [4, 8]: 21.43 ± 1.141 mm^2
Animals showing complete tumour response ([4]; Group 4: 1 mg days 1, 2, 3): five out of eight
Free of Tumour at end of Follow-Up [4, 9]: 62.5% (5/8)
Relapse of Tumour [4, 9]: 37.5%
Tumour Response: complete response [4, 9]: 100% (8/8)
Tumour Response: no response [4, 9]: 0%
Tumour Response: partial response [4, 9]: 0%
Mean tumour size on day 6 [4, 10]: 0.00 ± 0.00 mm^2
Mean tumour size on day 10 [4, 10]: 0.00 ± 0.00 mm^2
Mean tumour size on day 17 [4, 10]: 1.308 ± 1.308 mm^2
Mean tumour size at day 1 [4, 10]: 24.09 ± 1.653 mm^2
Anti-tumour effect ([4]; all four treatment regimes): strong anti tumour effect
Toxic or other adverse effects ([4]; all treated groups, intratumoural 1 mg): No toxic or other adverse effects besides local necrotic tissue and wound formation were observed
Animals without response to the treatment ([4]; of the 32 treated animals (in Group 3)): one
Animals with a complete tumour response [4, 11]: 27
Animals with a partial response [4, 11]: four
Effect on mitochondrial membrane (TEM) [5]: disintegration of the mitochondrial membrane
